Measured values published in patent US20120029187A1, “HALOALKYLSULFONANILIDE DERIVATIVE” (Nissan Chemical Industries, Ltd., priority 2009, published 2012).

Assays:
Assay type in all cases: in vivo
[1] = tested on: transplanted rice; assay: Test Example 1: preemergence treatment under submerged conditions, effect on crop; conditions: dose 2.52 g/a
How it was run: (§1)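 Score 0–5 by mortality (5: ≥90%; 0: <5%), read 3 weeks post-application. Paddy-type cups: alluvial soil under 4 cm water, weeds seeded plus transplanted 2.5-leaf rice; diluted EC dosed onto water surface same day as sowing, g/a basis; greenhouse 25 to 30° C.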

[2] = tested on: common lambsquater; assay: Test Example 3: herbicidal effects in soil treatment; conditions: dose 3.2 g/a
How it was run: (§2)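 Seeds were sown in sterilized diluvial soil and covered with about 1.5 cm of soil. Compounds, formulated as emulsifiable concentrates and diluted with water, were sprayed evenly over the soil surface at set doses in g/a. Herbicidal effect was scored on a rating scale three weeks later.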

[3] = tested on: common ragweed; assay: as above; conditions: dose 3.2 g/a
How it was run: as §2

[4] = tested on: water foxtail; assay: as above; conditions: dose 3.2 g/a
How it was run: as §2

[5] = tested on: Italian ryegrass; assay: as above; conditions: dose 3.2 g/a
How it was run: as §2

[6] = tested on: common chickweed; assay: as above; conditions: dose 3.2 g/a
How it was run: as §2

[7] = tested on: barnyardgrass; assay: as above; conditions: dose 3.2 g/a
How it was run: as §2

[8] = tested on: redroot pigweed; assay: as above; conditions: dose 3.2 g/a
How it was run: as §2

[9] = tested on: posumbu knotweed; assay: as above; conditions: dose 3.2 g/a
How it was run: as §2

[10] = tested on: beadstraw; assay: as above; conditions: dose 3.2 g/a
How it was run: as §2

[11] = tested on: velvetleaf; assay: as above; conditions: dose 3.2 g/a
How it was run: as §2

[12] = tested on: large crabgrass; assay: as above; conditions: dose 3.2 g/a
How it was run: as §2

[13] = tested on: giant foxtail; assay: as above; conditions: dose 3.2 g/a
How it was run: as §2

[14] = tested on: ducksalad; assay: Test Example 2: herbicidal effects during the vegetation period under submerged conditions; conditions: treatment during the vegetation period under submerged conditions; dose 2.52 g/a
How it was run: (§3)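 Barnyardgrass, bulrush and ducksalad were co-sown in alluvial soil flooded to 4 cm and grown in a greenhouse at 25 to 30° C. At the 1- or 2-leaf stage, water-diluted emulsifiable concentrates went onto the water surface at set doses (g/a). Herbicidal effect was scored three weeks later on a graded scale.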

[15] = tested on: barnyardgrass; assay: as above; conditions: treatment during the vegetation period under submerged conditions; dose 2.52 g/a
How it was run: as §3

[16] = tested on: bulrush; assay: as above; conditions: treatment during the vegetation period under submerged conditions; dose 2.52 g/a
How it was run: as §3

[17] = tested on: common lambsquater; assay: Test Example 4: herbicidal effect in foliage treatment; conditions: dose 3.2 g/a, three weeks after application
How it was run: (§4)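 Weeds and crops sown in sterilized diluvial soil under ~1.5 cm cover and grown in greenhouse at 25 to 30° C. At 14 days, water-diluted emulsifiable concentrate sprayed onto foliage at set doses (g/a); herbicidal effect scored on a rating scale three weeks after application.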

[18] = tested on: common ragweed; assay: as above; conditions: dose 3.2 g/a, three weeks after application
How it was run: as §4

[19] = tested on: water foxtail; assay: as above; conditions: dose 3.2 g/a, three weeks after application
How it was run: as §4

[20] = tested on: Italian ryegrass; assay: as above; conditions: dose 3.2 g/a, three weeks after application
How it was run: as §4

[21] = tested on: common chickweed; assay: as above; conditions: dose 3.2 g/a, three weeks after application
How it was run: as §4

[22] = tested on: barnyardgrass; assay: as above; conditions: dose 3.2 g/a, three weeks after application
How it was run: as §4

[23] = tested on: redroot pigweed; assay: as above; conditions: dose 3.2 g/a, three weeks after application
How it was run: as §4

[24] = tested on: posumbu knotweed; assay: as above; conditions: dose 3.2 g/a, three weeks after application
How it was run: as §4

[25] = tested on: velvetleaf; assay: as above; conditions: dose 3.2 g/a, three weeks after application
How it was run: as §4

[26] = tested on: large crabgrass; assay: as above; conditions: dose 3.2 g/a, three weeks after application
How it was run: as §4

[27] = tested on: giant foxtail; assay: as above; conditions: dose 3.2 g/a, three weeks after application
How it was run: as §4

[28] = tested on: ducksalad; assay: Test Example 1: herbicidal effects in preemergence treatment under submerged conditions; conditions: dose 2.52 g/a
How it was run: as §1

[29] = tested on: barnyardgrass; assay: as above; conditions: dose 2.52 g/a
How it was run: as §1

[30] = tested on: bulrush; assay: as above; conditions: dose 2.52 g/a
How it was run: as §1

SMILES | a: transplanted rice, effect on crop (evaluation scale 0-5) [1] | L: common lambsquater, herbicidal effect (evaluation scale 0-5) [2] | J: common ragweed, herbicidal effect (evaluation scale 0-5) [3] | G: water foxtail, herbicidal effect (evaluation scale 0-5) [4] | H: Italian ryegrass, herbicidal effect (evaluation scale 0-5) [5] | N: common chickweed, herbicidal effect (evaluation scale 0-5) [6] | A: barnyardgrass, herbicidal effect (evaluation scale 0-5) [7] | K: redroot pigweed, herbicidal effect (evaluation scale 0-5) [8] | M: posumbu knotweed, herbicidal effect (evaluation scale 0-5) [9] | O: beadstraw, herbicidal effect (evaluation scale 0-5) [10] | I: velvetleaf, herbicidal effect (evaluation scale 0-5) [11] | D: large crabgrass, herbicidal effect (evaluation scale 0-5) [12] | E: giant foxtail, herbicidal effect (evaluation scale 0-5) [13] | C: ducksalad, herbicidal effect (evaluation scale 0-5) [14] | A: barnyardgrass, herbicidal effect (evaluation scale 0-5) [15] | B: bulrush, herbicidal effect (evaluation scale 0-5) [16] | L: common lambsquater, herbicidal effect [17] | J: common ragweed, herbicidal effect [18] | G: water foxtail, herbicidal effect [19] | H: Italian ryegrass, herbicidal effect [20] | also measured
CC1(C2CC2)CC(=O)N(Cc2ccccc2NS(=O)(=O)C(F)(F)F)CO1 (stereo not drawn) [II-44] | 3 (mortality of at least 40% and less than 70%) | 0 (mortality of less than 5% (almost ineffective)) | 3 (mortality of at least 40% and less than 70%) | 5 (mortality of 90% or above (nearly complete death)) | 5 (mortality of 90% or above (nearly complete death)) | 2 (mortality of at least 20% and less than 40%) | 5 (mortality of 90% or above (nearly complete death)) | 0 (mortality of less than 5% (almost ineffective)) | 3 (mortality of at least 40% and less than 70%) | 0 (mortality of less than 5% (almost ineffective)) | 3 (mortality of at least 40% and less than 70%) | 4 (mortality of at least 70% and less than 90%) | 4 (mortality of at least 70% and less than 90%) | 5 (mortality of 90% or above (nearly complete death)) | 5 (mortality of 90% or above (nearly complete death)) | 5 (mortality of 90% or above (nearly complete death)) | 1 (mortality of at least 5% and less than 20%) | 2 (mortality of at least 20% and less than 40%) | 4 (mortality of at least 70% and less than 90%) | 4 (mortality of at least 70% and less than 90%) | N: common chickweed, herbicidal effect [21]: 4 (mortality of at least 70% and less than 90%); A: barnyardgrass, herbicidal effect [22]: 4 (mortality of at least 70% and less than 90%); K: redroot pigweed, herbicidal effect [23]: 0 (mortality of less than 5% (almost ineffective)); M: posumbu knotweed, herbicidal effect [24]: 1 (mortality of at least 5% and less than 20%); I: velvetleaf, herbicidal effect [25]: 3 (mortality of at least 40% and less than 70%); D: large crabgrass, herbicidal effect [26]: 2 (mortality of at least 20% and less than 40%); E: giant foxtail, herbicidal effect [27]: 3 (mortality of at least 40% and less than 70%); C: ducksalad, herbicidal effect (evaluation scale 0-5) [28]: 5 (mortality of 90% or above (nearly complete death)); A: barnyardgrass, herbicidal effect (evaluation scale 0-5) [29]: 5 (mortality of 90% or above (nearly complete death)); B: bulrush, herbicidal effect (evaluation scale 0-5) [30]: 5 (mortality of 90% or above (nearly complete death))
O=C1CC2(CCCC2)OCN1Cc1ccccc1NS(=O)(=O)C(F)(F)F [II-64] | 0 (mortality of less than 5% (almost ineffective)) | 5 (mortality of 90% or above (nearly complete death)) | 4 (mortality of at least 70% and less than 90%) | 5 (mortality of 90% or above (nearly complete death)) | 5 (mortality of 90% or above (nearly complete death)) | 4 (mortality of at least 70% and less than 90%) | 5 (mortality of 90% or above (nearly complete death)) | 4 (mortality of at least 70% and less than 90%) | 5 (mortality of 90% or above (nearly complete death)) | 4 (mortality of at least 70% and less than 90%) | 3 (mortality of at least 40% and less than 70%) | 5 (mortality of 90% or above (nearly complete death)) | 5 (mortality of 90% or above (nearly complete death)) | 5 (mortality of 90% or above (nearly complete death)) | 5 (mortality of 90% or above (nearly complete death)) | 5 (mortality of 90% or above (nearly complete death)) | 2 (mortality of at least 20% and less than 40%) | 3 (mortality of at least 40% and less than 70%) | 5 (mortality of 90% or above (nearly complete death)) | 3 (mortality of at least 40% and less than 70%) | N: common chickweed, herbicidal effect [21]: 4 (mortality of at least 70% and less than 90%); A: barnyardgrass, herbicidal effect [22]: 4 (mortality of at least 70% and less than 90%); K: redroot pigweed, herbicidal effect [23]: 0 (mortality of less than 5% (almost ineffective)); M: posumbu knotweed, herbicidal effect [24]: 3 (mortality of at least 40% and less than 70%); I: velvetleaf, herbicidal effect [25]: 1 (mortality of at least 5% and less than 20%); D: large crabgrass, herbicidal effect [26]: 4 (mortality of at least 70% and less than 90%); E: giant foxtail, herbicidal effect [27]: 4 (mortality of at least 70% and less than 90%); C: ducksalad, herbicidal effect (evaluation scale 0-5) [28]: 5 (mortality of 90% or above (nearly complete death)); A: barnyardgrass, herbicidal effect (evaluation scale 0-5) [29]: 5 (mortality of 90% or above (nearly complete death)); B: bulrush, herbicidal effect (evaluation scale 0-5) [30]: 5 (mortality of 90% or above (nearly complete death))
